# From patent US20260297031A1, “HYDROXYLAMINE-BASED BCR-ABL1 INHIBITORS FOR TREATMENT OF CANCER” (University of Georgia Research Foundation, Inc., priority 2023, published 2026)
# Columns and labels:
# MDCKII-MDR1 cells = assay: MDCKII-MDR1 permeability
# Method: MDCKII-MDR1 Permeability (Independently Performed By: Pharmaron Inc., Ninqbo, CN)
# To each well of the Transwell insert and reservoir were added 50 μL and 25 mL of cell culture medium, respectively.
# To determine the rate of drug transport in the apical to basolateral direction, 125 μL of the working solution of either test compounds or control compounds was added to the Transwell insert (apical compartment) and a 50 μL sample was immediately transferred from the apical compartment to 200 μL of acetonitrile containing internal standard (100 nM alprazolam, 200 nM caffeine, and 100 nM tolbutamide) in a new 96-well plate as the initial donor sample (A-B). The sample was then vortexed at 1,000 rpm for 10 min. The receiver plate (basolateral compartment) wells were then filled with 235 μL transport buffer. To determine the rate of drug transport in the basolateral to apical direction, 285 μL of the working solution of either test compounds or control compounds was added to the receiver plate (basolateral compartment) wells and a 50 μL of sample was immediately transferred from the basolateral compartment to 200 μL of acetonitrile containing internal standard in a new 96-well plate as the initial donor sample (B-A). The sample was vortexed for 10 min at 1,000 rpm. The Transwell insert (apical compartment) was then filled with 75 μL of transport buffer and the apical to basolateral direction and the basolateral to apical direction were done at the same time. […] After incubation, 50 μL samples from donor sides (apical compartment for Ap→BI flux, and basolateral compartment BI→Ap) and receiver sides (basolateral compartment for Ap→BI flux, and apical compartment for BI→Ap) were transferred to wells of a new 96-well plate, followed by the addition of 200 μL acetonitrile containing internal standard. […] An aliquot of 100 μL of the supernatant was mixed with an appropriate volume of ultra-pure water before LC-MS/MS analysis.
# (§1) To monitor for monolayer integrity, Lucifer yellow leakage was determined after the 2 h transport period. This began by preparing a stock solution of Lucifer yellow in DMSO and diluted with HBSS (10 mM HEPES, pH 7.4.) to reach a final concentration of 100 μM. To each Transwell insert (apical compartment) was then added 100 μL of the Lucifer yellow solution, followed by filling the wells in the receiver plate (basolateral compartment) with 300 μL of HBSS (10 mM HEPES, pH 7.4).
# (§2) The efflux ratio was determined using the following equation: […]
# cSRC = cSRC (Homo sapiens, UniProt P12931); assay: KinaseProfiler radiometric kinase assay, cSRC wt; format: biochemical; settings: [ATP] = 10 μM; mean of n = 2
# Sequence of cSRC (P12931 whole entry): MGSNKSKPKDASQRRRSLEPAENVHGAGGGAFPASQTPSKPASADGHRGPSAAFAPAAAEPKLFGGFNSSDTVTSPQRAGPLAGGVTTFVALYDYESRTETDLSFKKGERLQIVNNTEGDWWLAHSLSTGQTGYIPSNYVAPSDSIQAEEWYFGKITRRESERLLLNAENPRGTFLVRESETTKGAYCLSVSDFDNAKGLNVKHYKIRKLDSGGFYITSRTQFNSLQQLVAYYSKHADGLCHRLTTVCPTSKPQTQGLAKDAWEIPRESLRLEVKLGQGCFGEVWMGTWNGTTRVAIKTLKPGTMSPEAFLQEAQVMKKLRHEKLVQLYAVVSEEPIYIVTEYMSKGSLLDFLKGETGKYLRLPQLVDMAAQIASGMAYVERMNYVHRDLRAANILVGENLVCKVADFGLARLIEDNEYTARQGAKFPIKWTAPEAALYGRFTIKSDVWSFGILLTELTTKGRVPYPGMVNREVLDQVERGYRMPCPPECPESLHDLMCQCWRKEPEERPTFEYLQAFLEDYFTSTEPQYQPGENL
# [1] = Metabolic stability in human hepatocytes
# Method: Metabolic Stability in Hepatocytes (Independently Performed by Pharmaron Inc., Ninqbo, CN)
# After thawing was complete, hepatocytes were transferred into a 50 mL conical tube containing thawing medium and the tube was then placed into a centrifuge and spun at 100 g for 10 min. […] Using AO/PI staining, cells were counted to determine the viable cell density. […] Subsequently, 2 μL of the 100 μM test compounds or control compound solutions was transferred into the respective wells of the 96-well non-coated plate to start the reaction. […] Aliquots of 100 μL of the supernatant were then diluted by 100 μL of ultra-pure water, and the mixture was analyzed by LC-MS/MS.
# All calculations were carried out using Microsoft Excel. Peak areas were determined from extracted ion chromatograms. The in-vitro half-life (t1/2) of parent compound was determined by regression of the percent parent disappearance vs. time curve.
# BCR-ABL1 M351T = target: T1, BCR-ABL1 M351T (Homo sapiens, UniProt P00519, M351T); assay: KinaseProfiler radiometric kinase assay, BCR-ABL1 M351T; format: biochemical; settings: [ATP] = 10 μM; mean of n = 2
# T1 construct: BCR (fusion partner, as the printed name BCR-ABL1 says)
# Caco-2 cells = assay: Caco-2 permeability; settings: Papp (b − a/a − b)
# Method: Caco-2 Permeability (Independently Performed by Pharmaron Inc., Ningbo, CN)
# To each well of the Transwell insert and reservoir were added 50 μL and 25 mL of cell culture medium, respectively. […] Following this, the Caco-2 plate was removed from the incubator and the monolayer washed twice with pre-warmed HBSS (10 mM HEPES, pH 7.4).
# To determine the rate of drug transport in the apical to basolateral direction, 125 μL of the working solution of either test compounds or control compounds was added to the Transwell insert (apical compartment) and a 50 μL sample was immediately transported from the apical compartment to 200 μL of acetonitrile containing internal standard (100 nM alprazolam, 200 nM Caffeine and 100 nM tolbutamide) in a new 96-well plate as the initial donor sample (A-B). The sample was then vortexed at 1,000 rpm for 10 min. The receiver plate (basolateral compartment) wells were then filled with 235 μL of transport buffer. To determine the rate of drug transport in the basolateral to apical direction, 285 μL of the working solution of either test compounds or control compounds was added to the receiver plate wells (basolateral compartment) and a 50 μL sample was immediately transferred from the basolateral compartment to 200 μL of acetonitrile containing internal standard in a new 96-well plate as the initial donor sample (B-A). The sample was vortexed at 1,000 rpm for 10 min. The Transwell insert (apical compartment) was then filled with 75 μL of transport buffer and the apical to basolateral direction and the basolateral to apical direction were done at the same time. […] After incubation, 50 μL samples from donor sides (apical compartment for Ap→BI flux, and basolateral compartment for BI→Ap) and receiver sides (basolateral compartment for Ap→BI flux, and apical compartment for BI→Ap) were transferred to wells of a new 96-well plate, followed by the addition of 200 μL acetonitrile containing internal standard. All samples were vortexed for 10 min and then centrifuged at 3,220 g for 40 min. A 150 μL aliquot of the supernatant was then mixed with an appropriate volume of ultra-pure water prior to LC-MS/MS analysis.
# as §1, with “which was” for “and”
# as §2
SMILES,"efflux (P-gp), in words (MDCKII-MDR1 cells; MDCKII-MDR1)",IC50 (cSRC) [nM],remaining at 0.5 min ([1]; hepatocytes) [%],remaining at 0.5 h ([1]; hepatocytes) [%],remaining at 1 h ([1]; hepatocytes) [%],remaining at 2 h ([1]; hepatocytes) [%],t1/2 ([1]; hepatocytes) [min],IC50 (BCR-ABL1 M351T) [nM],Efflux Ratio (Caco-2 cells),"fold enhancement in permeability (MDCKII-MDR1 cells; MDCKII-MDR1, relative to bosutinib)","stability in hepatocytes, in words [1]","permeability in MDCKII-MDR1 cells, in words (MDCKII-MDR1 cells; MDCKII-MDR1)"
"COc1cc(Nc2c(C#N)cnc3cc(OCCON4CCN(C)CC4)c(OC)cc23)c(F)cc1Cl [Compound 15, 4-((4-chloro-2-fluoro-5-methoxyphenyl)amino)-6-methoxy-7-(2-((4-methylpiperazin-1-yl)oxy)ethoxy)quinoline-3-carbonitrile]",no further improvement in drug efflux was seen,2,100,52.5,29.4,9.48,34.2,2,6.4,,,
"COc1cc2c(Nc3cccc(OC)c3Cl)c(C#N)cnc2cc1OCCON1CCN(C)CC1 [Compound 17, 4-((2-Chloro-3-methoxyphenyl)amino)-6-methoxy-7-(2-((4-methylpiperazin-1-yl)oxy)ethoxy)quinoline-3-carbonitrile]",greatly reduced efflux ratio,14,100,80.6,60.5,35.8,,31,3.58,31 -fold,good stability in human hepatocytes,
"COc1cc(Cl)ccc1Nc1c(C#N)cnc2cc(OCCON3CCN(C)CC3)c(OC)cc12 [Compound 20, 4-((4-Chloro-2-methoxyphenyl)amino)-6-methoxy-7-(2-((4-methylpiperazin-1-yl)oxy)ethoxy)quinoline-3-carbonitrile]",reduced efflux ratios,11,100,63.5,43.3,20.1,,13,6.24,,good stability in human hepatocytes,markedly improved permeability
